From patent US5489576A, “Therapeutic agent for hemorrhoidal diseases” (Senju Pharmaceutical Co., Ltd., priority 1993, dated 1996)
Counter-ions that a name gives are not always drawn.

How the values were obtained:
rectal mucosa = experiment: Rectal mucosa irritating action; format: in vivo, Male Wistar rats; conditions: intrarectal, 5 h; for Irritation potency, Index value: mean ± standard error (n = 6); for Irritation potency, Central value: score 0-4 of Table 1
Experimental: Rectal Mucosa Irritating Action of Compound (I)
The rectal mucosa irritating action of Compound (I) was examined as in the following.
1. Animals used: Male Wistar rats weighing 135-200 g
2. Test substance: EPC-K added to an oil-in-water type cream
The rats were fasted for 48 hours and the test substance was intrarectally administered. Five hours later, the rats were exsanguinated to death. The rectum was removed and the mucosa was visually observed. The condition of the mucosa was expressed in numerical units according to the evaluation standard shown in Table 1, and a central value and an average value were calculated, based on which the irritation by the test substance was classified according to the evaluation standard for irritation shown in Table 2.

[1] = system: recto-anal edema induced by a croton oil mixture; experiment: Suppressive effect on recto-anal edema induced by croton oil mixture; format: in vivo, Male Wistar rats; conditions: 4% EPC-K in petrolatum, 24 h, * p < 0.05 vs control
Experimental: Effects of Compound (I) on Models with Hemorrhoidal Disease Induced by Croton Oil Mixture
The suppressive effect of Compound (I) on recto-anal edema induced by a croton oil mixture was examined.
1. Animals used: Male Wistar rats weighing 140-250 g
2. Test substance: EPC-K added to petrolatum base material to 4 w/w %
Composition: distilled water:pyridine:diethyl ether:6% croton oil in diethyl ether solution=1:4:5:10
Preparation: Water and a small amount of diethyl ether were added to pyridine and mixed. Then, a 6% croton oil diethyl ether solution was added and the remaining diethyl ether was added thereto. The mixture was vigorously shaken.
A stype of a swab was impregnated with the croton oil mixture (160 μl) and the entire stype was inserted into the rectum for 10 seconds.
5. Determination of edema
The test substance was administered intrarectally immediately after the induction of inflammation, and the anus was sealed for 4 hours with a clip so as to prevent leaking out of the substance.
At 24 hours after the induction of inflammation, the rats were exsanguinated to death and the weight of the recto-anal part, cut out in 15 mm length from 5 mm from the circular hairline on annal epithelium, was measured. The recto-anal coefficient (RAC=Wra·Wb^-1 ·10^3) was calculated on the basis of the weight of the recto-anal part (Wra) and body weight (Wb) and used as an index of inflammation.

rectal tissues = experiment: Wound healing accelerating effect on rectal tissues (hydroxyproline content); format: in vivo, Male Wistar rats; conditions: 1% EPC-K, average (n=5)
Experimental: Wound Healing Accelerating Effect of Compound (I) on Rectal Tissues
The wound healing accelerating effect of Compound (I) on rectal tissues was examined using the amount of hydroxyproline (Hyp) in tissue as an index.
1. Animals used: Male Wistar rats weighing 150-250 g
2. Test substance: EPC-K added to an oil-in-water cream to 1 w/w %
The rats were fasted for 24 hours and a narrow saw was inserted in the rectum. A wound was made by two reciprocations of the saw in the rectum. The test substance was injected in the rectum once a day by 100 μl beginning immediately after forming of the wound. The rats were exsanguinated to death at 4 hours, 1, 3, 6 or 9 days thereafter and the rectum was removed. The removed rectum was delipidized, shredded and dried. After acid hydrolysis, pH was adjusted and hydroxyproline content was measured by the chloramine T oxidation method.

[2] = LD50 in rats (acute toxicity); conditions: rat, in vivo
Source text: Accordingly, it can be advantageously used for the treatment of hemorrhoidal diseases.

[3] = 0.2% EPC-K in oil-in-water cream

SMILES: Cc1c(C)c2c(c(C)c1OP(=O)(O)OC1=C(O)[C@@H]([C@@H](O)CO)OC1=O)CCC(C)(CCCC(C)CCCC(C)CCCC(C)C)O2 (mixture of isomers) [EPC-K, L-ascorbic acid DL-α-tocopheryl phosphate diester potassium salt]
- Irritation potency, Index value (rectal mucosa; [3]): 0.67 ± 0.42
- Irritation potency, Central value (rectal mucosa; [3]): 0
- Irritation potency, Index value (rectal mucosa; 1% EPC-K in oil-in-water cream): 0.50 ± 0.34
- Irritation potency, Central value (rectal mucosa; 1% EPC-K in oil-in-water cream): 0
- Irritation potency, Index value (rectal mucosa; 5% EPC-K in oil-in-water cream): 0.83 ± 0.54
- Irritation potency, Central value (rectal mucosa; 5% EPC-K in oil-in-water cream): 0
- Edema suppression [1]: 19.5%
- Recto-anal coefficient (RAC) ([1]; mean ± standard error (n = 10), control 2.36, untreated 0.67): 2.03 ± 0.07
- Hydroxyproline content in rectal tissues (rectal tissues; 4 hr later, control 19.67, normal rectum 22.26): 19.38 µg/mg
- Hydroxyproline content in rectal tissues (rectal tissues; 1 day later, control 19.69, normal rectum 22.26): 21.70 µg/mg
- Hydroxyproline content in rectal tissues (rectal tissues; 3 days later, control 23.46, normal rectum 22.26): 24.75 µg/mg
- Hydroxyproline content in rectal tissues (rectal tissues; 6 days later, control 25.63, normal rectum 22.26): 25.22 µg/mg
- Hydroxyproline content in rectal tissues (rectal tissues; 9 days later, control 27.38, normal rectum 22.26): 26.53 µg/mg
- LD50 ([2]; intravenous injection to rats): ≥ 100 mg/kg
- LD50 ([2]; oral administration to rats): ≥ 5000 mg/kg
